According to ChEMBL document CHEMBL1201862, “PubChem BioAssay data set” (2004):
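Compound exposure: 48 hours, 5 concentrations, 96-well plates. The concentration for 50% growth inhibition is given as GI50.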 Calls of active or inactive are those of the source. Rule as the data show it: active = GI50 up to about 1.1 µM and inactive = higher.

Columns and labels:
Experiment in all cases: growth of human tumour cells (NCI), 48 h
RXF 393 = test system: RXF 393
SF-539 = test system: SF-539
HCT-15 = test system: HCT-15
LOX IMVI = test system: LOX IMVI
HCC 2998 = test system: HCC 2998
OVCAR-4 = test system: OVCAR-4
NCI-H460 = test system: NCI-H460
RPMI-8226 = test system: RPMI-8226
M14 = test system: M14
UACC-62 = test system: UACC-62
SNB-75 = test system: SNB-75
IGROV-1 = test system: IGROV-1
SF-295 = test system: SF-295
CCRF-CEM = test system: CCRF-CEM
ACHN = test system: ACHN
A498 = test system: A498
HT-29 = test system: HT-29
786-0 = test system: 786-0
HOP-92 = test system: HOP-92
OVCAR-3 = test system: OVCAR-3

SMILES	GI50 (RXF 393)	GI50 (SF-539)	GI50 (HCT-15)	GI50 (LOX IMVI)	GI50 (HCC 2998)	GI50 (OVCAR-4)	GI50 (NCI-H460)	GI50 (RPMI-8226)	GI50 (M14)	GI50 (UACC-62)	GI50 (SNB-75)	GI50 (IGROV-1)	GI50 (SF-295)	GI50 (CCRF-CEM)	GI50 (ACHN)	GI50 (A498)	GI50 (HT-29)	GI50 (786-0)	GI50 (HOP-92)	GI50 (OVCAR-3)
CS(=O)(=O)NNS(=O)(=O)c1ccccc1	> 100 µM (inactive)	> 100 µM (inactive)	> 100 µM	> 100 µM (inactive)	> 100 µM (inactive)	> 100 µM (inactive)	> 100 µM (inactive)	> 100 µM (inactive)	> 100 µM (inactive)	> 100 µM (inactive)	> 100 µM (inactive)	> 100 µM (inactive)	> 100 µM (inactive)	> 100 µM (inactive)	> 100 µM (inactive)	> 100 µM (inactive)	> 100 µM (inactive)	> 100 µM (inactive)	–	–
COc1cccc(C2N3CCCCC3[C@@H]3c4[nH]c5ccccc5c4CCN23)c1OC (stereo partly drawn)	13.4 µM (inactive)	15 µM (inactive)	17.1 µM	–	–	17.7 µM (inactive)	19.2 µM (inactive)	18.7 µM (inactive)	16.1 µM (inactive)	11.6 µM (inactive)	–	18.2 µM (inactive)	17.6 µM (inactive)	17.3 µM (inactive)	15.2 µM (inactive)	11.4 µM (inactive)	12.9 µM (inactive)	18.3 µM (inactive)	15.7 µM (inactive)	13.1 µM (inactive)
Cc1cc2c(C=O)n[nH]c2c(C#N)c1C	–	27.7 µM (inactive)	32.4 µM	39.4 µM (inactive)	> 100 µM (inactive)	29.2 µM (inactive)	46.6 µM (inactive)	> 100 µM (inactive)	35.9 µM (inactive)	43.3 µM (inactive)	7.43 µM (inactive)	67 µM (inactive)	44.1 µM (inactive)	> 100 µM (inactive)	63.5 µM (inactive)	29.2 µM (inactive)	53.6 µM (inactive)	> 100 µM (inactive)	31.3 µM (inactive)	48 µM (inactive)
O=C(n1c(=O)n(-c2ccc(Cl)cc2)c(=O)n1C(=O)C(Cl)(Cl)Cl)C(Cl)(Cl)Cl	–	> 100 µM (inactive)	> 10 µM	> 100 µM (inactive)	> 100 µM (inactive)	> 100 µM (inactive)	> 100 µM (inactive)	> 100 µM (inactive)	–	> 100 µM (inactive)	–	> 100 µM (inactive)	> 100 µM (inactive)	> 100 µM (inactive)	12.7 µM (inactive)	> 100 µM (inactive)	> 100 µM (inactive)	> 100 µM (inactive)	> 100 µM (inactive)	> 100 µM (inactive)
CN(C)CCNC1=Nc2ccccc2C(=O)N2CSCC12 (stereo not drawn)	> 100 µM (inactive)	–	> 100 µM	> 100 µM (inactive)	> 100 µM (inactive)	> 100 µM (inactive)	> 100 µM (inactive)	> 100 µM (inactive)	> 100 µM (inactive)	> 100 µM (inactive)	> 100 µM (inactive)	> 100 µM (inactive)	> 100 µM (inactive)	> 100 µM (inactive)	> 100 µM (inactive)	> 100 µM (inactive)	> 100 µM (inactive)	> 100 µM (inactive)	–	> 100 µM (inactive)
COC(=O)[C@@H]1[C@@H](c2cccc(Cl)c2)[C@H](C(=O)OC)C2(C[C@@]1(C)O)NCCS2 (stereo partly drawn)	49.4 µM (inactive)	> 100 µM (inactive)	82.6 µM	38.2 µM (inactive)	–	46.7 µM (inactive)	48.4 µM (inactive)	–	39.1 µM (inactive)	73.5 µM (inactive)	35.5 µM (inactive)	62.5 µM (inactive)	> 100 µM (inactive)	0.684 µM (active)	> 100 µM (inactive)	> 100 µM (inactive)	44.2 µM (inactive)	74.6 µM (inactive)	73.6 µM (inactive)	31.3 µM (inactive)
O=C1N/N=C\Nc2ccc(cc2)S(=O)(=O)c2ccc(cc2)/N=C\NNC1=O	> 100 µM (inactive)	> 100 µM (inactive)	> 100 µM	> 100 µM (inactive)	> 100 µM (inactive)	> 100 µM (inactive)	> 100 µM (inactive)	–	> 100 µM (inactive)	> 100 µM (inactive)	–	> 100 µM (inactive)	> 100 µM (inactive)	–	> 100 µM (inactive)	20 µM (inactive)	> 100 µM (inactive)	> 100 µM (inactive)	> 100 µM (inactive)	> 100 µM (inactive)
COc1cc([N+](=O)[O-])cc2c1NC(=O)C2(C)SC (stereo not drawn)	86.7 µM (inactive)	–	> 100 µM	88.1 µM (inactive)	> 100 µM (inactive)	90.2 µM (inactive)	> 100 µM (inactive)	> 100 µM (inactive)	52.8 µM (inactive)	96.8 µM (inactive)	38.2 µM (inactive)	> 100 µM (inactive)	63.7 µM (inactive)	40.9 µM (inactive)	> 100 µM (inactive)	> 100 µM (inactive)	> 100 µM (inactive)	> 100 µM (inactive)	–	77.3 µM (inactive)
CCN(CC)C(=O)c1cccc2c(OC)ccc(OC)c12	> 100 µM (inactive)	–	> 100 µM	> 100 µM (inactive)	> 100 µM (inactive)	> 100 µM (inactive)	> 100 µM (inactive)	> 100 µM (inactive)	> 100 µM (inactive)	> 100 µM (inactive)	> 100 µM (inactive)	> 100 µM (inactive)	> 100 µM (inactive)	> 100 µM (inactive)	> 100 µM (inactive)	> 100 µM (inactive)	> 100 µM (inactive)	> 100 µM (inactive)	–	> 100 µM (inactive)
NC(CC(O)(c1ccccc1)c1ccccc1)c1ccccc1S (stereo not drawn)	17 µM (inactive)	–	15.2 µM	13.8 µM (inactive)	17.3 µM (inactive)	15.9 µM (inactive)	18 µM (inactive)	22.2 µM (inactive)	15.4 µM (inactive)	15.5 µM (inactive)	15 µM (inactive)	> 10 µM (inactive)	14.9 µM (inactive)	13 µM (inactive)	13.1 µM (inactive)	17.6 µM (inactive)	14.5 µM (inactive)	15.9 µM (inactive)	–	16 µM (inactive)
Nc1ncnc2c1ncn2C1OC(CSC(F)(F)F)C(O)C1O (stereo not drawn)	–	> 100 µM (inactive)	> 100 µM	> 100 µM (inactive)	> 100 µM (inactive)	> 100 µM (inactive)	> 100 µM (inactive)	> 100 µM (inactive)	> 100 µM (inactive)	> 100 µM (inactive)	> 100 µM (inactive)	> 100 µM (inactive)	> 100 µM (inactive)	> 100 µM (inactive)	> 100 µM (inactive)	> 100 µM (inactive)	> 100 µM (inactive)	> 100 µM (inactive)	> 100 µM (inactive)	> 100 µM (inactive)
COC(=O)[C@@](C)(COC(=O)C(C)(C)C)NC(=O)OC(C)(C)C	> 100 µM (inactive)	> 100 µM (inactive)	> 100 µM	> 100 µM (inactive)	> 100 µM (inactive)	> 100 µM (inactive)	> 100 µM (inactive)	> 100 µM (inactive)	> 100 µM (inactive)	> 100 µM (inactive)	> 100 µM (inactive)	> 100 µM (inactive)	> 100 µM (inactive)	> 100 µM (inactive)	> 100 µM (inactive)	> 100 µM (inactive)	> 100 µM (inactive)	> 100 µM (inactive)	–	–
NC1CC(=O)c2c1sc(Cl)c2Cl (stereo not drawn)	> 100 µM (inactive)	> 100 µM (inactive)	> 100 µM	–	> 100 µM (inactive)	–	> 100 µM (inactive)	> 100 µM (inactive)	> 100 µM (inactive)	> 100 µM (inactive)	> 100 µM (inactive)	> 100 µM (inactive)	–	> 100 µM (inactive)	> 100 µM (inactive)	> 100 µM (inactive)	> 100 µM (inactive)	> 100 µM (inactive)	–	> 100 µM (inactive)
COc1ccc(C2NC(=S)Nc3c2c(=O)oc2c3ccc3ccccc32)cc1 (stereo not drawn)	> 100 µM (inactive)	–	53.7 µM	> 100 µM (inactive)	–	69.2 µM (inactive)	96.6 µM (inactive)	47.6 µM (inactive)	45.6 µM (inactive)	45.7 µM (inactive)	33.7 µM (inactive)	> 100 µM (inactive)	59.3 µM (inactive)	46 µM (inactive)	67.6 µM (inactive)	38.9 µM (inactive)	> 100 µM (inactive)	80.7 µM (inactive)	41.8 µM (inactive)	> 100 µM (inactive)
O=C1NC(=O)C(C(CC(=O)c2ccc([N+](=O)[O-])cc2)c2ccccc2)C(=O)N1 (stereo not drawn)	2.77 µM (inactive)	> 100 µM (inactive)	> 100 µM	20 µM (inactive)	–	> 100 µM (inactive)	> 100 µM (inactive)	31.3 µM (inactive)	> 100 µM (inactive)	77.1 µM (inactive)	> 100 µM (inactive)	> 100 µM (inactive)	4.79 µM (inactive)	35.2 µM (inactive)	> 100 µM (inactive)	> 100 µM (inactive)	52.2 µM (inactive)	> 100 µM (inactive)	> 100 µM (inactive)	36.7 µM (inactive)
O=[As](O)(O)c1ccc(/N=N/c2ccc([As](=O)(O)O)cc2)cc1	> 100 µM (inactive)	–	> 100 µM	> 100 µM (inactive)	–	> 100 µM (inactive)	> 100 µM (inactive)	–	> 100 µM (inactive)	> 100 µM (inactive)	–	> 100 µM (inactive)	> 100 µM (inactive)	–	> 100 µM (inactive)	> 100 µM (inactive)	> 100 µM (inactive)	> 100 µM (inactive)	> 100 µM (inactive)	> 100 µM (inactive)
